pKd: −log10 of the molar value.
molecular target: Cytochrome P450 2B4 (Oryctolagus cuniculus) (UniProt P00178); experiment: Binding affinity to C-terminal His4-tagged CYP2B4 dH/H226Y mutant (rabbit) after 2 hrs by isothermal titration calorimetric analysis

Row | pKd | Compound
1 | 6.52 | Clc1ccc(-n2ccnc2)cc1
2 | 6.52 | c1ccc(COCCn2ccnc2)cc1
3 | 6.52 | Clc1ccc(-c2cnc[nH]2)cc1

Row | Compound | pKd
4 | c1ccc(-n2ccnc2)cc1 | 6.52
5 | c1ccc(Cn2ccnc2)cc1 [BENZYLIMIDAZOLE] | 6.52
